Laboratory results: patent US20260308172A1, “TRICYCLIC COMPOUNDS FOR TREATMENT OF BACTERIAL INFECTIONS” (priority 2023, published 2026)
≈ marks a conversion by molar mass, not a printed value.

Columns and labels:
[1] = test system: Klebsiella pneumonia ATCC 43816; assay: Minimal Inhibitory Concentration (MIC) assay, Klebsiella pneumonia ATCC 43816; type: cell-based; details: Klebsiella pneumoniae, ATCC43816, 20 h, read-out: MIC Klebsiella pneumoniae ATCC43816
Protocol: (§1) The antibacterial activity of the compounds of the present invention was evaluated against the commonly used quality control strain Escherichia coli ATCC 25922 and the rifampin-resistant mutant strain Klebsiella pneumonia ATCC 43816. Both were originally derived from human clinical samples and are available from ATCC (American Type Culture Collection). The in vitro potency of compounds to inhibit Escherichia coli (ATCC 25922) and Klebsiella pneumonia (ATCC 43816) growth was assessed by the MIC (Minimal Inhibitory Concentration) broth dilution method. Specifically compound dilutions were prepared from 10 mM DMSO stock solutions as follows: i) serial 2-fold dilution in 20 μL DMSO were prepared in a master plate (Greiner, Cat No: 651201), ii) 180 μL sterile distilled water was added to each aliquot and iii) 10 μL diluted compounds were transferred into a new assay plate (Costar, 3599).
(§2) Vials of each test microorganisms were maintained frozen in the vapor phase of a liquid nitrogen freezer. Single-use frozen vials of the two strains Escherichia coli ATCC 25922 (KWIKSTIK, 0335K) and Klebsiella pneumonia ATCC 43816, with predetermined CFU/mL, were taken out from the freezer, thawed at room temperature, and diluted in Cation-Adjusted Mueller Hinton Broth (CAMHB) to achieve a final inoculum of 5×10^5 CFU/mL. 90 μL bacteria containing broth was dispensed to the assay plate containing the pre-dispensed compound dilutions and mixed by pipetting 5 times.
(§3) Then the assay plates were incubated for 20 hours at 35° C. in ambient air. Following incubation, the MIC (μg/mL), the lowest concentration of drug that inhibits visible growth of the microorganism was read with the help of a magnification mirror and recorded.

[2] = test system: Escherichia coli ATCC 25922; assay: Minimal Inhibitory Concentration (MIC) assay, Escherichia coli ATCC 25922; type: cell-based; details: ATCC25922, 20 h, read-out: MIC Escherichia coli ATCC25922
Protocol: as §1, §2, §3

| SMILES | MIC [1] [µg/mL] | MIC [2] [µg/mL] |
| --- | --- | --- |
| NC[C@H]1OC(=O)N2c3ccc(S(=O)(=O)N4CCN(c5cc(C(F)(F)[C@H]6CNCCO6)cc(Cl)n5)CC4)cc3OC[C@H]12 [Example 024, (3R,3aR)-3-(aminomethyl)-7-[4-[6-chloro-4-[difluoro-[(2R)-morpholin-2-yl]methyl]-2-pyridyl]piperazin-1-yl]sulfonyl-3a,4-dihydro-3H-oxazolo[4,3-c][1,4]benzoxazin-1-one] | 1.32 (≈ 2.15 µM) | 0.66 (≈ 1.07 µM) |
| NC1CC(=O)N2c3ccc(S(=O)(=O)N4CCN(c5cc(C(F)(F)[C@H]6CNCCO6)cc(Cl)n5)CC4)cc3OCC12 (stereo partly drawn) [Example 031, 3-Amino-7-[4-[6-chloro-4-[difluoro-[(2R)-morpholin-2-yl]methyl]-2-pyridyl]piperazin-1-yl]sulfonyl-2,3,3a,4-tetrahydropyrrolo[2,1-c][1,4]benzoxazin-1-one] | 1.01 (≈ 1.68 µM) | 0.25 (≈ 0.417 µM) |
| NC[C@@H]1OC(=O)N2c3ccc(S(=O)(=O)N4CCN(c5cc(C(F)(F)C6C7COCC76)cc(Cl)n5)CC4)cc3OC[C@@H]12 (relative stereo) [Example 018] | 0.28 (≈ 0.457 µM) | 0.28 (≈ 0.457 µM) |
| C[N@@+]1(CC(N)=O)CCC[C@H]1C(=O)N[C@H]1CC[C@H](C(F)(F)c2cc(Cl)nc(N3CCN(S(=O)(=O)c4ccc5c(c4)OC[C@@H]4[C@H](CO)OC(=O)N54)CC3)c2)CC1 [Example 058, (1S,2S)—N-[4-[[2-[4-[[(3R,3aR)-3-(hydroxymethyl)-1-oxo-3a,4-dihydro-3H-oxazolo[4,3-c][1,4]benzoxazin-7-yl]sulfonyl]piperazin-1-yl]-6-chloro-4-pyridyl]-difluoro-methyl]cyclohexyl]-1-(2-amino-2-oxo-ethyl)-1-methyl-pyrrolidin-1-ium-2-carboxamide;chloride] | 1.32 | 1.3 |
| Cc1cc(C(F)(F)F)nc(N2CCN(S(=O)(=O)c3ccc4c(c3)OCC3CCC(=O)N43)CC2)n1 (stereo not shown) [Example 011, 7-[4-[4-Methyl-6-(trifluoromethyl)pyrimidin-2-yl]piperazin-1-yl]sulfonyl-2,3,3a,4-tetrahydropyrrolo[2,1-c][1,4]benzoxazin-1-one] | 2.87 (≈ 5.77 µM) | 1.4 (≈ 2.81 µM) |
| NCC[N+]1(CCNC(=O)[C@H]2CC[C@H](C(F)(F)c3cc(Cl)nc(N4CCN(S(=O)(=O)c5ccc6c(c5)OC[C@H]5[C@H](CO)OC(=O)N65)CC4)c3)CC2)CCCC1.[Cl-] [Example 064, 4-[[2-[4-[[(3R,3aS)-3-(hydroxymethyl)-1-oxo-3a,4-dihydro-3H-oxazolo[4,3-c][1,4]benzoxazin-7-yl]sulfonyl]piperazin-1-yl]-6-chloro-4-pyridyl]-difluoro-methyl]-N-[2-[1-(2-aminoethyl)pyrrolidin-1-ium-1-yl]ethyl]cyclohexanecarboxamide; chloride] | 2.85 | 2.8 |
| NC[C@H]1OC(=O)N2c3ccc(S(=O)(=O)N4CCN(c5cc(C(F)(F)[C@@H]6COCCO6)cc(Cl)n5)CC4)cc3OC[C@@H]12 [Example 021, (3R,3aS)-3-(Aminomethyl)-7-[4-[6-chloro-4-[[(2S)-1,4-dioxan-2-yl]-difluoro-methyl]-2-pyridyl]piperazin-1-yl]sulfonyl-3a,4-dihydro-3H-oxazolo[4,3-c][1,4]benzoxazin-1-one] | 0.51 (≈ 0.828 µM) | 0.26 (≈ 0.422 µM) |
| NC[C@@H]1OC(=O)N2c3ccc(S(=O)(=O)N4CCN(c5cc(C(F)(F)F)cc(Cl)n5)CC4)cc3OC[C@@H]12 (relative stereo) [Example 001] | 0.46 (≈ 0.84 µM) | 0.46 (≈ 0.84 µM) |
| O=C1CC(NC2CCNCC2)C2COc3cc(S(=O)(=O)N4CCN(c5cc(C(F)(F)[C@@H]6COCCO6)cc(Cl)n5)CC4)ccc3N12 (mixture of isomers) [Example 027, 7-[4-[6-Chloro-4-[difluoro-[rac-(2S)-1,4-dioxan-2-yl]methyl]-2-pyridyl]piperazin-1-yl]sulfonyl-3-(4-piperidylamino)-2,3,3a,4-tetrahydropyrrolo[2,1-c][1,4]benzoxazin-1-one] | 2.14 (≈ 3.13 µM) | 2.1 (≈ 3.07 µM) |
| NC[C@@H]1OC(=O)N2c3ccc(S(=O)(=O)N4CCN(c5cc(C(F)(F)[C@H]6CNCCO6)cc(Cl)n5)CC4)cc3OC[C@@H]12 [Example 023, (3S,3aS)-3-(aminomethyl)-7-[4-[6-chloro-4-[difluoro-[(2R)-morpholin-2-yl]methyl]-2-pyridyl]piperazin-1-yl]sulfonyl-3a,4-dihydro-3H-oxazolo[4,3-c][1,4]benzoxazin-1-one] | 0.33 (≈ 0.537 µM) | 0.33 (≈ 0.537 µM) |
| NC1CC(=O)N2c3ccc(S(=O)(=O)N4CCN(c5cc(C(F)(F)C6COCCO6)cc(Cl)n5)CC4)cc3OCC12 (stereo not shown) [Example 008, 3-Amino-7-[4-[6-chloro-4-[1,4-dioxan-2-yl(difluoro)methyl]-2-pyridyl]piperazin-1-yl]sulfonyl-2,3,3a,4-tetrahydropyrrolo[2,1-c][1,4]benzoxazin-1-one] | 0.5 (≈ 0.833 µM) | 0.5 (≈ 0.833 µM) |
| O=C1O[C@@H](CO)[C@@H]2COc3cc(S(=O)(=O)N4CCN(c5cc(C(F)(F)[C@@H]6CNCCO6)cc(Cl)n5)CC4)ccc3N12 (relative stereo) [Example 050, trans-7-[4-[6-chloro-4-[difluoro-[(2S)-morpholin-2-yl]methyl]-2-pyridyl]piperazin-1-yl]sulfonyl-3-(hydroxymethyl)-3a,4-dihydro-3H-oxazolo[4,3-c][1,4]benzoxazin-1-one] | 0.48 (≈ 0.779 µM) | 0.48 (≈ 0.779 µM) |
| CN1CCC(C(F)(F)c2cc(Cl)nc(N3CCN(S(=O)(=O)c4ccc5c(c4)OCC4CCC(=O)N54)CC3)c2)CC1 (stereo not shown) [Example 016, 7-[4-[6-Chloro-4-[difluoro-(1-methyl-4-piperidyl)methyl]-2-pyridyl]piperazin-1-yl]sulfonyl-2,3,3a,4-tetrahydropyrrolo[2,1-c][1,4]benzoxazin-1-one] | 1.86 (≈ 3.12 µM) | 1.9 (≈ 3.19 µM) |
| NC(=O)CN1CCC(C(F)(F)c2cc(Cl)nc(N3CCN(S(=O)(=O)c4ccc5c(c4)OC[C@@H]4[C@H](CO)OC(=O)N54)CC3)c2)CC1 [Example 056, 2-[4-[[2-[4-[[(3R,3aR)-3-(hydroxymethyl)-1-oxo-3a,4-dihydro-3H-oxazolo[4,3-c][1,4]benzoxazin-7-yl]sulfonyl]piperazin-1-yl]-6-chloro-4-pyridyl]-difluoro-methyl]-1-piperidyl]acetamide] | 0.23 (≈ 0.343 µM) | 0.31 (≈ 0.462 µM) |
| NC[C@@H]1OC(=O)N2c3ccc(S(=O)(=O)N4CCN(c5cc(S(=O)(=O)c6ccc(N)cc6)cc(Cl)n5)CC4)cc3OC[C@@H]12 (relative stereo) [Example 004] | 0.26 (≈ 0.409 µM) | 0.52 (≈ 0.819 µM) |
| CC1COC(C(F)(F)c2cc(Cl)nc(N3CCN(S(=O)(=O)c4ccc5c(c4)OC[C@H]4[C@H](CO)OC(=O)N54)CC3)c2)CN1 (stereo partly drawn) [Example 040, (3R,3aS)-7-[4-[6-chloro-4-[difluoro-(5-methylmorpholin-2-yl)methyl]-2-pyridyl]piperazin-1-yl]sulfonyl-3-(hydroxymethyl)-3a,4-dihydro-3H-oxazolo[4,3-c][1,4]benzoxazin-1-one] | 0.29 (≈ 0.46 µM) | 0.29 (≈ 0.46 µM) |
| Cc1cc(C(F)(F)F)nc(N2CCN(S(=O)(=O)c3ccc4c(c3)OC[C@@H]3[C@H](CO)OC(=O)N43)CC2)n1 [Example 015, (3R,3aR)-3-(hydroxymethyl)-7-[4-[4-methyl-6-(trifluoromethyl)pyrimidin-2-yl]piperazin-1-yl]sulfonyl-3a,4-dihydro-3H-oxazolo[4,3-c][1,4]benzoxazin-1-one] | 0.76 (≈ 1.44 µM) | 0.5 (≈ 0.944 µM) |
| Nc1ccc(S(=O)(=O)c2cc(Cl)nc(N3CCN(S(=O)(=O)c4ccc5c(c4)OCC4CCC(=O)N54)CC3)c2)cc1 (stereo not shown) [Example 013, 7-[4-[4-(4-Aminophenyl)sulfonyl-6-chloro-2-pyridyl]piperazin-1-yl]sulfonyl-2,3,3a,4-tetrahydropyrrolo[2,1-c][1,4]benzoxazin-1-one] | 0.24 (≈ 0.397 µM) | 0.47 (≈ 0.778 µM) |
| Nc1ccc(S(=O)(=O)c2cc(Br)nc(N3CCN(S(=O)(=O)c4ccc5c(c4)OCC4CCC(=O)N54)CC3)c2)cc1 (stereo not shown) [Example 014, 7-[4-[4-(4-Aminophenyl)sulfonyl-6-bromo-2-pyridyl]piperazin-1-yl]sulfonyl-2,3,3a,4-tetrahydropyrrolo[2,1-c][1,4]benzoxazin-1-one] | 0.51 (≈ 0.786 µM) | 0.51 (≈ 0.786 µM) |
| Cc1cc(C(F)(F)c2cc(Cl)nc(N3CCN(S(=O)(=O)c4ccc5c(c4)OC[C@H]4[C@H](CN)OC(=O)N54)CC3)c2)ccn1 (relative stereo) [Example 019] | 0.28 (≈ 0.451 µM) | 0.29 (≈ 0.467 µM) |
| NC[C@@H]1OC(=O)N2c3ccc(S(=O)(=O)N4CCN(c5cc(S(=O)(=O)C6CC6)cc(Cl)n5)CC4)cc3OC[C@@H]12 (relative stereo) [Example 003] | 1.94 (≈ 3.32 µM) | 0.97 (≈ 1.66 µM) |
| O=C1CCC2COc3cc(S(=O)(=O)N4CCN(c5cc(C(F)(F)F)cc(Cl)n5)CC4)ccc3N12 (stereo not shown) [Example 012, 7-[4-[6-Chloro-4-(trifluoromethyl)-2-pyridyl]piperazin-1-yl]sulfonyl-2,3,3a,4-tetrahydropyrrolo[2,1-c][1,4]benzoxazin-1-one] |  | 0.61 (≈ 1.18 µM) |
